The record followed here is article PMC8247983 (Chemmedchem, 2021).

SMILES strings stand for the structures.

For the assay, the target named is hBChE (Homo sapiens, UniProt P06276). The experiment in a line: Ellman's assay. Type of assay: biochemical. In general terms: In Ellman's method for cholinesterases, released thiocholine reacts with DTNB.
Sequence of hBChE (P06276 29-602): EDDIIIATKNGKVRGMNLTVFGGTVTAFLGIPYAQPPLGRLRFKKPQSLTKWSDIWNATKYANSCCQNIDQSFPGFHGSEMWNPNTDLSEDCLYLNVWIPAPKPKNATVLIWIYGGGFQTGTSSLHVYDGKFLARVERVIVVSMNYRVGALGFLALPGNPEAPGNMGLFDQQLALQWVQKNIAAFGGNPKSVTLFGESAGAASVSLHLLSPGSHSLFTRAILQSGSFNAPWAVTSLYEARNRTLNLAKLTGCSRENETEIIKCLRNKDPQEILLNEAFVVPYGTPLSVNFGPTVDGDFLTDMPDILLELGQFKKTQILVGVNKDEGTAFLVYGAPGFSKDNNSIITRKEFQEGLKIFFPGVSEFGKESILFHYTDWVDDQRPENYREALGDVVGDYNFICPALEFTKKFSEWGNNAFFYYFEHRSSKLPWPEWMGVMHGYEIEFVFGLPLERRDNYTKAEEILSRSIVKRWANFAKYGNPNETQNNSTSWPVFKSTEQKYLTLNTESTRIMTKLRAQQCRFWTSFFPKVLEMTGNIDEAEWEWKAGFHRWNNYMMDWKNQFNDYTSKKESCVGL

The term IC50 denotes the concentration at which inhibition is half-maximal. Low values mean higher potency, high ones lower potency. Consider `CN1c2ccc(OC(=O)NCCCCCCN3CCOC(CF)C3)cc2CN2CCc3ccccc3C21` (racemic) [compound 2, 13‐Methyl‐5,8,13,13a‐tetrahydro‐6H‐isoquinolino[1,2‐b]quinazolin‐10‐yl‐{6‐[2‐(fluoromethyl)morpholino]‐hexyl}carbamate], for which inhibition was half-maximal at 0.0666 µM (IC50).
